This passage reports MIC and Activity results from ChEMBL document CHEMBL4619795, “Establishing the Structure-Activity Relationship of Daptomycin” (ACS Med Chem Lett, 2020).

In assay [1] the test system is Staphylococcus aureus. Kind of assay: Antibacterial activity against methicillin-resistant Staphylococcus aureus 11 assessed as bacterial growth inhibition in presence of 50 ug/ml calcium ions by CLSI protocol based broth microdilution method. The format is functional. (Dilution methods test growth across graded concentrations, often in twofold steps.)
In assay [2] the test system is Staphylococcus aureus. Kind of assay: Antibacterial activity against methicillin-resistant Staphylococcus aureus 14 assessed as bacterial growth inhibition in presence of 50 ug/ml calcium ions by CLSI protocol based broth microdilution method. The format is functional.
Assay [3] deals with Staphylococcus aureus. Briefly: Antibacterial activity against methicillin-resistant Staphylococcus aureus 86 assessed as bacterial growth inhibition in presence of 50 ug/ml calcium ions by CLSI protocol based broth microdilution method. It is filed as functional.
Assay [4] has as its system Staphylococcus aureus. Briefly: Antibacterial activity against methicillin-resistant Staphylococcus aureus 88 assessed as bacterial growth inhibition in presence of 50 ug/ml calcium ions by CLSI protocol based broth microdilution method. The format is functional.
Assay [5] relates to Staphylococcus aureus. Kind of assay: Antibacterial activity against Staphylococcus aureus ATCC 29213 assessed as bacterial growth inhibition in presence of 50 ug/ml calcium ions by CLSI protocol based broth microdilution method. The format is functional.
Assay [6] has as its system Enterococcus faecalis. Kind of assay: Antibacterial activity against Streptococcus faecalis assessed as bacterial growth inhibition in presence of 50 ug/ml calcium ions by CLSI protocol based broth microdilution method. It is filed as functional.
Assay [7] deals with Enterococcus. Briefly: Antibacterial activity against Enterococcus 6 assessed as bacterial growth inhibition in presence of 50 ug/ml calcium ions by CLSI protocol based broth microdilution method. It is filed as functional.
Assay [8] relates to Enterococcus. Kind of assay: Antibacterial activity against Enterococcus 60 assessed as bacterial growth inhibition in presence of 50 ug/ml calcium ions by CLSI protocol based broth microdilution method. The format is functional.
The subject of assay [9] is Enterococcus faecalis. Kind of assay: Antibacterial activity against Enterococcus faecalis ATCC 29212 assessed as bacterial growth inhibition in presence of 50 ug/ml calcium ions by CLSI protocol based broth microdilution method. The format is functional.
Assay [10] relates to Lipid bilayer. Briefly: Binding affinity to POPC/POPG (1:1) large unilamellar vesicles assessed as change in ellipticity […] at 50 uM in presence of phosphatidylglycerol and Ca2+ ions by circular dichroism spectroscopy. (In general: Circular dichroism is the unequal absorption of left and right circularly polarised light.)
In assay [11] the test system is Lipid bilayer. Briefly: Binding affinity to POPC large unilamellar vesicles assessed as change in ellipticity […] at 50 uM in presence of phosphatidylglycerol and Ca2+ ions by circular dichroism spectroscopy.
Assay [12] deals with Staphylococcus aureus. Kind of assay: Bactericidal activity against Staphylococcus aureus 86 assessed as reduction in colony formation at 8 ug/ml measured at 24 hrs by time-killing assay. It is filed as functional, organism-based.
The test system of assay [13] is Staphylococcus aureus. Kind of assay: Antibacterial activity against Staphylococcus aureus ATCC 29213 assessed as decrease in mutation prevention concentration measured after 72 hrs. It is filed as functional, organism-based.

Structures are written as SMILES. Activity calls are given as the source filed them. The rule behind the calls is not given here. Bounds are passed on as bounds.

For orientation: MIC means the lowest concentration that inhibits growth of the organism. Take `CCCCCCCCCC(=O)N[C@@H](Cc1c[nH]c2ccccc12)C(=O)N[C@@H](CC(N)=O)C(=O)N[C@@H](CC(=O)O)C(=O)N[C@@H]1C(=O)NCC(=O)N[C@@H](CCCN)C(=O)N[C@@H](CC(N)=O)C(=O)N[C@H](C)C(=O)N[C@@H](CC(N)=O)C(=O)NCC(=O)N[C@H](CO)C(=O)N[C@@H]([C@@H](C)CC(=O)O)C(=O)N[C@@H](CC(=O)c2ccccc2N)C(=O)O[C@@H]1C`: the minimum inhibitory concentration (MIC) with Staphylococcus aureus [1], in the assay with Staphylococcus aureus [2], in the assay on Staphylococcus aureus [3], with Staphylococcus aureus [4], in the assay on Staphylococcus aureus [5] and with Enterococcus faecalis [6] was at least 32 µg/mL each time. Further, the MIC in the assay on Enterococcus [7], with Enterococcus [8] and with Enterococcus faecalis [9] was at least 32 µg/mL each time. Besides, the outcome in the assay on Lipid bilayer [10] and with Lipid bilayer [11] was Active.
With `CCCCCCCCCC(=O)N[C@@H](Cc1cn(C)c2ccccc12)C(=O)N[C@@H](CC(N)=O)C(=O)N[C@@H](CC(=O)O)C(=O)N[C@@H]1C(=O)NCC(=O)N[C@@H](CCCN)C(=O)N[C@@H](CC(=O)O)C(=O)N[C@H](C)C(=O)N[C@@H](CC(=O)O)C(=O)NCC(=O)N[C@H](CO)C(=O)N[C@@H]([C@@H](C)CC(=O)O)C(=O)N[C@@H](CC(=O)c2ccccc2N)C(=O)O[C@@H]1C`, the outcome in the assay on Staphylococcus aureus [12] and in the assay on Staphylococcus aureus [13] was Active.
Turning to `CCCCCCCCCC(=O)N[C@@H](Cc1ccc2ccccc2c1)C(=O)N[C@@H](CC(N)=O)C(=O)N[C@@H](CC(=O)O)C(=O)N[C@@H]1C(=O)NCC(=O)N[C@@H](CCCN)C(=O)N[C@@H](CC(=O)O)C(=O)N[C@H](C)C(=O)N[C@@H](CC(=O)O)C(=O)NCC(=O)N[C@H](CO)C(=O)N[C@@H]([C@@H](C)CC(=O)O)C(=O)N[C@@H](CC(=O)c2ccccc2N)C(=O)O[C@@H]1C`, the minimum inhibitory concentration (MIC) is 0.5 µg/mL with Staphylococcus aureus [1]; 0.125 µg/mL with Staphylococcus aureus [2]; 0.06 µg/mL with Staphylococcus aureus [3]; 0.125 µg/mL in the assay with Staphylococcus aureus [4]; 0.25 µg/mL in the assay on Staphylococcus aureus [5]; 0.25 µg/mL with Enterococcus faecalis [6]. Moreover, the minimum inhibitory concentration (MIC) with Enterococcus [7] worked out at 4 µg/mL; in the assay with Enterococcus [8], 0.5 µg/mL; with Enterococcus faecalis [9], 1 µg/mL.
Regarding `CCCCCCCCCC(=O)N[C@@H](Cc1c[nH]c2ccccc12)C(=O)N[C@@H](CC(N)=O)C(=O)N[C@@H](CC(=O)O)C(=O)N[C@@H]1C(=O)NCC(=O)N[C@@H](CCCN)C(=O)N[C@@H](CC(=O)O)C(=O)N[C@H](C)C(=O)N[C@@H](C)C(=O)NCC(=O)N[C@H](CO)C(=O)N[C@@H]([C@@H](C)CC(=O)O)C(=O)N[C@@H](CC(=O)c2ccccc2N)C(=O)O[C@@H]1C`, the minimum inhibitory concentration (MIC) in the assay on Staphylococcus aureus [1], with Staphylococcus aureus [2], in the assay on Staphylococcus aureus [3], in the assay on Staphylococcus aureus [4], in the assay with Staphylococcus aureus [5] and with Enterococcus faecalis [6] was at least 64 µg/mL each time. Besides, the MIC in the assay with Enterococcus [7], with Enterococcus [8] and with Enterococcus faecalis [9] was at least 64 µg/mL throughout.
Regarding `CCCCCCCCCC(=O)N[C@@H](Cc1cccc2ccccc12)C(=O)N[C@@H](CC(N)=O)C(=O)N[C@@H](CC(=O)O)C(=O)N[C@@H]1C(=O)NCC(=O)N[C@@H](CCCN)C(=O)N[C@@H](CC(=O)O)C(=O)N[C@H](C)C(=O)N[C@@H](CC(=O)O)C(=O)NCC(=O)N[C@H](CO)C(=O)N[C@@H]([C@@H](C)CC(=O)O)C(=O)N[C@@H](CC(=O)c2ccccc2N)C(=O)O[C@@H]1C`, the MIC in the assay with Staphylococcus aureus [1] is 1 µg/mL; in the assay on Staphylococcus aureus [2] it was 0.25 µg/mL; in the assay on Staphylococcus aureus [3], 0.25 µg/mL; in the assay with Staphylococcus aureus [4], 0.125 µg/mL; in the assay on Staphylococcus aureus [5], 0.25 µg/mL; in the assay with Enterococcus faecalis [6], 0.5 µg/mL. For the same compound, the minimal inhibitory concentration (MIC) with Enterococcus [7], in the assay on Enterococcus [8] and in the assay on Enterococcus faecalis [9] was 2 µg/mL each time.
Turning to `CCCCCCCCCC(=O)N[C@@H](Cc1c[nH]c2ccccc12)C(=O)N[C@@H](CC(N)=O)C(=O)N[C@@H](CC(=O)O)C(=O)N[C@@H]1C(=O)NCC(=O)N[C@@H](CO)C(=O)N[C@@H](CC(=O)O)C(=O)N[C@H](C)C(=O)N[C@@H](CC(=O)O)C(=O)NCC(=O)N[C@H](CO)C(=O)N[C@@H]([C@@H](C)CC(=O)O)C(=O)N[C@@H](CC(=O)c2ccccc2N)C(=O)O[C@@H]1C`, the MIC was 4 µg/mL in the assay on Staphylococcus aureus [1]; 4 µg/mL with Staphylococcus aureus [2]; 2 µg/mL in the assay with Staphylococcus aureus [3]; 1 µg/mL in the assay with Staphylococcus aureus [4]; 2 µg/mL in the assay on Staphylococcus aureus [5]; 4 µg/mL with Enterococcus faecalis [6]. In addition, the values for the MIC with Enterococcus [7], with Enterococcus [8] and with Enterococcus faecalis [9] were 32 µg/mL, at least 32 µg/mL and at least 32 µg/mL, respectively.
With `CCCCCCCCCC(=O)N[C@@H](Cc1c[nH]c2ccccc12)C(=O)N[C@@H](CC(N)=O)C(=O)N[C@@H](CC(=O)O)C(=O)N[C@@H]1C(=O)NCC(=O)N[C@@H](CCCN)C(=O)N[C@@H](CCC(=O)O)C(=O)N[C@H](C)C(=O)N[C@@H](CCC(=O)O)C(=O)NCC(=O)N[C@H](CO)C(=O)N[C@@H]([C@@H](C)CC(=O)O)C(=O)N[C@@H](CC(=O)c2ccccc2N)C(=O)O[C@@H]1C`, the MIC in the assay on Staphylococcus aureus [1], in the assay with Staphylococcus aureus [2], with Staphylococcus aureus [3], in the assay on Staphylococcus aureus [4], in the assay on Staphylococcus aureus [5] and in the assay with Enterococcus faecalis [6] was at least 32 µg/mL each time. Besides, the MIC in the assay with Enterococcus [7], in the assay with Enterococcus [8] and with Enterococcus faecalis [9] was at least 32 µg/mL throughout.
Turning to `CCCCCCCCCC(=O)N[C@@H](Cc1c[nH]c2ccccc12)C(=O)N[C@@H](CC(N)=O)C(=O)N[C@@H](CC(=O)O)C(=O)N[C@@H]1C(=O)NCC(=O)N[C@@H](CCCN)C(=O)N[C@@H](CC(=O)O)C(=O)N[C@H](C)C(=O)N[C@@H](CC(=O)O)C(=O)NCC(=O)N[C@H](CO)C(=O)N[C@@H]([C@@H](C)CC(=O)O)C(=O)N[C@@H](C)C(=O)O[C@@H]1C`, the MIC in the assay on Staphylococcus aureus [1], with Staphylococcus aureus [2], with Staphylococcus aureus [3], in the assay on Staphylococcus aureus [4], with Staphylococcus aureus [5] and with Enterococcus faecalis [6] was at least 32 µg/mL in each case. Further, the MIC in the assay with Enterococcus [7], in the assay with Enterococcus [8] and with Enterococcus faecalis [9] was at least 32 µg/mL throughout.
In the case of `CCCCCCCCCC(=O)N[C@@H](Cc1c[nH]c2ccccc12)C(=O)N[C@@H](CC(N)=O)C(=O)N[C@@H](CC(=O)O)C(=O)N[C@@H]1C(=O)NCC(=O)N[C@@H](CCC(=O)O)C(=O)N[C@@H](CC(=O)O)C(=O)N[C@H](C)C(=O)N[C@@H](CC(=O)O)C(=O)NCC(=O)N[C@H](CO)C(=O)N[C@@H]([C@@H](C)CC(=O)O)C(=O)N[C@@H](CC(=O)c2ccccc2N)C(=O)O[C@@H]1C`, the minimum inhibitory concentration (MIC) in the assay with Staphylococcus aureus [1] is at least 32 µg/mL; in the assay with Staphylococcus aureus [2], at least 32 µg/mL; in the assay with Staphylococcus aureus [3] it was at least 32 µg/mL; in the assay on Staphylococcus aureus [4], 16 µg/mL; in the assay on Staphylococcus aureus [5], 16 µg/mL; in the assay with Enterococcus faecalis [6], at least 32 µg/mL. Moreover, the minimum inhibitory concentration (MIC) in the assay on Enterococcus [7], in the assay on Enterococcus [8] and with Enterococcus faecalis [9] was at least 32 µg/mL each time.
For the compound `CCCCCCCCCC(=O)N[C@@H](Cc1c[nH]c2ccccc12)C(=O)N[C@@H](CC(N)=O)C(=O)N[C@@H](CC(=O)O)C(=O)N[C@@H]1C(=O)NCC(=O)N[C@@H](CC(=O)O)C(=O)N[C@@H](CC(=O)O)C(=O)N[C@H](C)C(=O)N[C@@H](CC(=O)O)C(=O)NCC(=O)N[C@H](CO)C(=O)N[C@@H]([C@@H](C)CC(=O)O)C(=O)N[C@@H](CC(=O)c2ccccc2N)C(=O)O[C@@H]1C`, the MIC in the assay with Staphylococcus aureus [1] was at least 32 µg/mL; in the assay with Staphylococcus aureus [2], at least 32 µg/mL; in the assay with Staphylococcus aureus [3], 16 µg/mL; in the assay with Staphylococcus aureus [4], 8 µg/mL; with Staphylococcus aureus [5], 16 µg/mL; with Enterococcus faecalis [6] it was at least 32 µg/mL. For the same compound, the MIC in the assay on Enterococcus [7], in the assay on Enterococcus [8] and in the assay on Enterococcus faecalis [9] was at least 32 µg/mL throughout.
With `CCCCCCCCCC(=O)N[C@@H](Cc1c[nH]c2ccccc12)C(=O)N[C@@H](CC(N)=O)C(=O)N[C@@H](CC(=O)O)C(=O)N[C@@H]1C(=O)NCC(=O)N[C@@H](CCCN)C(=O)N[C@@H](CC(=O)O)C(=O)N[C@H](C)C(=O)N[C@@H](CCC(=O)O)C(=O)NCC(=O)N[C@H](CO)C(=O)N[C@@H]([C@@H](C)CC(=O)O)C(=O)N[C@@H](CC(=O)c2ccccc2N)C(=O)O[C@@H]1C`, the minimum inhibitory concentration (MIC) with Staphylococcus aureus [1], in the assay on Staphylococcus aureus [2], in the assay with Staphylococcus aureus [3], with Staphylococcus aureus [4], in the assay on Staphylococcus aureus [5] and in the assay with Enterococcus faecalis [6] was at least 32 µg/mL throughout. Moreover, the MIC in the assay with Enterococcus [7], in the assay on Enterococcus [8] and with Enterococcus faecalis [9] was at least 32 µg/mL each time. The result in the assay on Lipid bilayer [10] and in the assay on Lipid bilayer [11] was Active.
